Patent US20210177879A1, “VITAMIN D RECEPTOR AGONIST” (Guanghzou University of Chinese Medicine, priority 2018, published 2021)

What was measured:
VDR = assay: Detection of acting target of monotropein: VDR expression (Western blot, immunohistochemistry); assay type: in vivo, Balb/c mice
Protocol: Experimental method: 90 Balb/c mice of 6-8 weeks were purchased from the Experimental Animal Center in Guangzhou University of Chinese Medicine, weighed about 18-22 g, and subjected to adaptive feeding for 10 days. Modeling was divided into three stages. In the first stage, except for the normal group of animals being given saline injection, each of the other animals were intraperitoneally injected with a carcinogen AOM (10 mg/kg), and given free access to 2% DSS water from the next day for 7 days, and then given access to replaced regular drinking water for 14 days. […] The diet, water drinking and body weights of the animals were recorded daily and DAI scores were made, and the animals were killed and harvested at the 10th week. […]
The animals were anesthetized and harvested, and the liver, spleen, thymus and testis were weighed to calculate the organ coefficient; the colon tissue was taken, measured with a ruler for the length, and measured with a vernier caliper for the thickness, and the number and size of tumors and degree of colonic ulceration and adhesion were recorded; respective tissues were cut into small pieces and fixed, and the remaining tissues were frozen and stored; and the fixed tissues were used for HE staining and immunohistochemistry.
(§1) A potential acting target of monotropein for interfering with the colon cancer was detected.

[1] = system: transplanted tumor of MB-231 pancreatic cancer cells; assay: Transplanted tumor of MB-231 pancreatic cancer cells in nude mice; assay type: in vivo; conditions: 2 mg/kg in combination with 5-fluorouracil at half dose (20 mg/kg), once a day; effect comparable to 5-fluorouracil alone 40 mg/kg
Protocol: The SMB-231 pancreatic cancer cells were thawed, and cultured in a changed medium after 24 hours. Medium preparation method: 6% serum, 1% of a bispecific antibody+a 1640 basal medium. After grown to confluent, the cells were digested and subcultured to expand the number of cells. When reached the required amount, the cells were digested by trypsin, centrifuged, and resuspended in PBS to prepare a cell suspension of 1×10^8 cells/ml. A part of the cell suspension was added with the monotropein, desacetyl asperulosidic acid, asperuloside, and asperulosidic acid respectively, and the inhibition rate (%) of tumor cell proliferation by each of these different compounds was examined.
Male adult nude mice, which had the body weights of 20-24 g, were purchased from Guangdong Medical Laboratory Animal Center. After 7 days of adaptive feeding of the animals, except for the blank group, the remaining animals were injected with 0.2 ml of a SMB-231 pancreatic cancer cell suspension in PBS at ventrodorsal and scapula sites of them, the response conditions of the animals were observed, and the body weights of the animals were determined once a week. After 2 weeks of observation, the animals were grouped into the following groups according to tumor size: a blank group; a model group; a 5-fluorouracil control group (5-Full, 40 mg/kg); monotropein+5-fluorouracil (2 mg/kg monotropein+20 mg/kg 5-fluorouracil), desacetyl asperulosidic acid+5-fluorouracil (2 mg/kg desacetyl asperulosidic acid+20 mg/kg 5-fluorouracil), asperuloside+5-fluorouracil (2 mg/kg asperuloside+20 mg/kg 5-fluorouracil), asperulosidic acid+5-fluorouracil (2 mg/kg asperulosidic acid+20 mg/kg 5-fluorouracil), these groups being labeled as: Mo, As, Aa, Da. Each group included 8 animals; and administration was conducted once a day.
The status, death conditions, and eating and drinking conditions of the animals were observed daily. The body weights of the animals were determined once a week and the tumor size of the animals was determined every 4 days. The tumor volume of the animals was determined by using a vernier caliper. After 1 month of administration, the animals were sacrificed after blood was sampled from the orbit thereof, and the tumor was separated and weighed.

SRC = assay: Detection of acting target of monotropein: SRC (Western blot); assay type: in vivo, Balb/c mice; conditions: colon of AOM/DSS mice
Protocol: (§2) Experimental method: 90 Balb/c mice of 6-8 weeks were purchased from the Experimental Animal Center in Guangzhou University of Chinese Medicine, weighed about 18-22 g, and subjected to adaptive feeding for 10 days. Modeling was divided into three stages. In the first stage, except for the normal group of animals being given saline injection, each of the other animals were intraperitoneally injected with a carcinogen AOM (10 mg/kg), and given free access to 2% DSS water from the next day for 7 days, and then given access to replaced regular drinking water for 14 days. In the second stage, the animals were given free access to 2% DSS water for 10 days, and then given access to replaced regular drinking water for 14 days. In the third stage, the animals were given free access to 2% DSS water for 10 days, and then given access to replaced regular drinking water for 11 days. The normal group was given access to regular drinking water throughout the experiment. The diet, water drinking and body weights of the animals were recorded daily and DAI scores were made, and the animals were killed and harvested at the 10th week. […]
as §1

Aktl = assay: Detection of acting target of monotropein: Aktl (Western blot); assay type: in vivo, Balb/c mice; conditions: colon of AOM/DSS mice
Protocol: as §2, §1

vitamin D receptor = assay: Expression of vitamin D receptor in colon tissues, Experiment 2 (Western blot, immunohistochemistry); assay type: in vivo, Balb/c mice; conditions: compared with the blank group; VD3 0.2 mg/kg, four compounds 2 mg/kg
Protocol: (§3) Experimental method: 70 Balb/c mice of 6-8 weeks were purchased from the Experimental Animal Center in Guangzhou University of Chinese Medicine, weighed about 18-22 g, and subjected to adaptive feeding for 10 days. Modeling was divided into three stages. In the first stage, except for the normal group of animals being given saline injection, each of the other animals were intraperitoneally injected with a carcinogen AOM (10 mg/kg), and given free access to 2% DSS water from the next day for 7 days, and then given access to replaced regular drinking water for 14 days. In the second stage, the animals were given free access to 2% DSS water for 10 days, and then given access to replaced regular drinking water for 14 days. In the third stage, the animals were given free access to 2% DSS water for 10 days, and then given access to replaced regular drinking water for 11 days. The normal group was given access to regular drinking water throughout the experiment. The diet, water drinking and body weights of the animals were recorded daily and DAI scores were made, and the animals were killed and harvested at the 10th week. In this experiment, the animals were divided into groups and administrated on the first day of a modeling period of the second stage, where a total of 7 groups were set, each group including 10 animals. The first group was a blank control group (control) that was given access to drinking water by gavage; the second group was a model group (model), in which a total of 10 animals were given access to drinking water by gavage; the third group was a vitamin D3 positive administration control group (VD3, 0.2 mg/kg); and the fourth to seventh groups were given monotropein, desacetyl asperulosidic acid, asperuloside, and asperulosidic acid (groups labeled as: Mo, As, Aa, Da), respectively at a given dose of 2 mg/kg. Dosing was conducted once a day until the end of the experiment. At the end of the experiment, the animals were anesthetized and harvested, and the colon tissue was taken, measured with a ruler for the length, and measured with a vernier caliper for the thickness. The effects of monotropein, desacetyl asperulosidic acid, asperuloside and asperulosidic acid on expression of the vitamin D receptor were detected.

[2] = system: AOM/DSS colon cancer model; assay: AOM/DSS colon cancer model, Experiment 2 (colon length, thickness, tumors); assay type: in vivo, Balb/c mice; conditions: 2 mg/kg once a day
Protocol: as §3

O=C(O)C1=CO[C@@H](O[C@@H]2O[C@H](CO)[C@@H](O)[C@H](O)[C@H]2O)[C@H]2[C@@H]1C=C[C@]2(O)CO [monotropein]
expression of VDR, immunohistochemistry (VDR; colon cancerous sites of AOM/DSS mice): up-regulated the expression of VDR
expression of intestinal VDR, Western blot (VDR; colon of AOM/DSS mice): mainly promoted the expression of intestinal VDR
tumor proliferation in SMB-231 tumor-bearing mice [1]: significantly inhibit tumor proliferation
effect on SRC, Western blot (SRC): no significant effect
effect on Aktl, Western blot (Aktl): no significant effect
expression of the vitamin D receptor in the colon tissues (Western blot and immunohistochemistry) (vitamin D receptor): promote expression enhancement
incidence and development of colorectal cancers [2]: inhibiting the incidence and development of colorectal cancers
